Assays:
[1] = target: 5'-AMP-activated protein kinase catalytic subunit alpha-2 (Homo sapiens) (UniProt P54646); assay: Inhibition of AMPK-alpha2 (unknown origin) assessed as residual activity at 100 nM by KINOMEscan analysis relative to control
[2] = target: Cyclin-dependent kinase 3 (Homo sapiens) (UniProt Q00526); assay: Inhibition of CDK3 (unknown origin) assessed as residual activity at 100 nM by KINOMEscan analysis relative to control
[3] = target: Macrophage colony-stimulating factor 1 receptor (Homo sapiens) (UniProt P07333); assay: Inhibition of CSF1R (unknown origin) assessed as residual activity at 100 nM by KINOMEscan analysis relative to control
[4] = target: Dual specificity tyrosine-phosphorylation-regulated kinase 1A (Homo sapiens) (UniProt Q13627); assay: Inhibition of DYRK1A (unknown origin) assessed as residual activity at 100 nM by KINOMEscan analysis relative to control
[5] = target: Tyrosine-protein kinase Fgr (Homo sapiens) (UniProt P09769); assay: Inhibition of FGR (unknown origin) assessed as residual activity at 100 nM by KINOMEscan analysis relative to control
[6] = target: T1, Rhodopsin kinase GRK1 (Homo sapiens) (UniProt Q15835); assay: Inhibition of GRK1 (unknown origin) assessed as residual activity at 100 nM by KINOMEscan analysis relative to control
T1 sequence (whole entry): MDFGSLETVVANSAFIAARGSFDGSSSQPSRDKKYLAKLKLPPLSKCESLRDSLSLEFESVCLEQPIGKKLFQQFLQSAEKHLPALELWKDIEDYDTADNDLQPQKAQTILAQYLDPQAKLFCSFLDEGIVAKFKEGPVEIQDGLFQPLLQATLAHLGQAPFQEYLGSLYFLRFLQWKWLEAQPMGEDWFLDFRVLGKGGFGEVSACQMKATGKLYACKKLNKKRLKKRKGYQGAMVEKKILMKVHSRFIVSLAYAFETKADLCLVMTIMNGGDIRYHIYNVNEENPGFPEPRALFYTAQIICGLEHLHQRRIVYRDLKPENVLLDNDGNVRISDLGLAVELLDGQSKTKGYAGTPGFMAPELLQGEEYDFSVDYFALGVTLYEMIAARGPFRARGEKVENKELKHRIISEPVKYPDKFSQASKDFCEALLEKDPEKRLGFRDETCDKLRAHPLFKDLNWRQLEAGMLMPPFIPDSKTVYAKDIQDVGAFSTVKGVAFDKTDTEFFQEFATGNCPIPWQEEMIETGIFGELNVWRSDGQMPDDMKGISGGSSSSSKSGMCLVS

[7] = target: Tyrosine-protein kinase HCK (Homo sapiens) (UniProt P08631); assay: Inhibition of HCK (unknown origin) assessed as residual activity at 100 nM by KINOMEscan analysis relative to control
[8] = target: Insulin receptor (Homo sapiens) (UniProt P06213); assay: Inhibition of INSR (unknown origin) assessed as residual activity at 100 nM by KINOMEscan analysis relative to control
[9] = target: Tyrosine-protein kinase JAK1 (Homo sapiens) (UniProt P23458); assay: Inhibition of JAK1 JH1 catalytic domain (unknown origin) assessed as residual activity at 100 nM by KINOMEscan analysis relative to control
[10] = target: T2, cAMP-dependent protein kinase catalytic subunit PRKX (Homo sapiens) (UniProt P51817); assay: Inhibition of PRKX (unknown origin) assessed as residual activity at 100 nM by KINOMEscan analysis relative to control
T2 sequence (whole entry): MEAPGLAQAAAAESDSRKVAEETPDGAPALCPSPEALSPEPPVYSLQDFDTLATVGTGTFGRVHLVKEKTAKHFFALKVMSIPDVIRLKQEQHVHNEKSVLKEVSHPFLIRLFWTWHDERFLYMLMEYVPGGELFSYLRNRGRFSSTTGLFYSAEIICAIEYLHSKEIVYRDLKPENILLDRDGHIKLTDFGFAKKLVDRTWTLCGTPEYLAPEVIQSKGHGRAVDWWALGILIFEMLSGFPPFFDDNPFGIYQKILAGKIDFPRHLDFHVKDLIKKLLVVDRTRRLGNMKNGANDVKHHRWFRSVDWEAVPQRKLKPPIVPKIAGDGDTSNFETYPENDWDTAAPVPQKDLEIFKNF

[11] = target: T3, Serine/threonine-protein kinase RIO3 (Homo sapiens) (UniProt O14730); assay: Inhibition of RIOK3 (unknown origin) assessed as residual activity at 100 nM by KINOMEscan analysis relative to control
T3 sequence (whole entry): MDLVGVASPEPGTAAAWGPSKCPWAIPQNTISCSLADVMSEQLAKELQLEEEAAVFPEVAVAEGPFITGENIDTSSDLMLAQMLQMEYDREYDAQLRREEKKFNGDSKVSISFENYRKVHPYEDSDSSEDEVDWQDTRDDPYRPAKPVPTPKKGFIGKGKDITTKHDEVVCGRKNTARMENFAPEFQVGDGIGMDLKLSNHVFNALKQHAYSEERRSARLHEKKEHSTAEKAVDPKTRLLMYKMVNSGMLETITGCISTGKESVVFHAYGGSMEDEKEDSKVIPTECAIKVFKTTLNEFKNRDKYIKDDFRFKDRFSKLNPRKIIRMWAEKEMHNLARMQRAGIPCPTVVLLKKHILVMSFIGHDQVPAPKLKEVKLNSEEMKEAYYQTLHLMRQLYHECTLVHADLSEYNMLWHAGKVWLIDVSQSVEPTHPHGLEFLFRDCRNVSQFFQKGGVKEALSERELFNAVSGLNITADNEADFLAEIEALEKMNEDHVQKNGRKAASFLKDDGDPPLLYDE

[12] = target: Ribosomal protein S6 kinase beta-1 (Homo sapiens) (UniProt P23443); assay: Inhibition of S6K1 (unknown origin) assessed as residual activity at 100 nM by KINOMEscan analysis relative to control
[13] = target: T4, TGF-beta receptor type-1 (Homo sapiens) (UniProt P36897); assay: Inhibition of TGFBR1 (unknown origin) assessed as residual activity at 100 nM by KINOMEscan analysis relative to control
T4 sequence (whole entry): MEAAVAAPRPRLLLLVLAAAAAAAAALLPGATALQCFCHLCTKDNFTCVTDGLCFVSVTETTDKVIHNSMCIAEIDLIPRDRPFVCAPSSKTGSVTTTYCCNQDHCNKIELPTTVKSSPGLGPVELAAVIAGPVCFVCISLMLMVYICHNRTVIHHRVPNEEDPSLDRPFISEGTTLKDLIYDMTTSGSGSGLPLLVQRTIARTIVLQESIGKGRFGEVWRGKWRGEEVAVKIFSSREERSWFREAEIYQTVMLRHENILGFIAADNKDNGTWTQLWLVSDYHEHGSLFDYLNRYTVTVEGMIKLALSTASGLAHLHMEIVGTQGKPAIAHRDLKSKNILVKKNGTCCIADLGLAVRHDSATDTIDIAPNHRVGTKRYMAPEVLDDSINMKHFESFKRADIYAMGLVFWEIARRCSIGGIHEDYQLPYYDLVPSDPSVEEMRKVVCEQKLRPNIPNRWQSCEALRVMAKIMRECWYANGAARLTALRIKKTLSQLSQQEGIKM

Sequence of Macrophage colony-stimulating factor 1 receptor (Homo sapiens) (P07333 whole entry): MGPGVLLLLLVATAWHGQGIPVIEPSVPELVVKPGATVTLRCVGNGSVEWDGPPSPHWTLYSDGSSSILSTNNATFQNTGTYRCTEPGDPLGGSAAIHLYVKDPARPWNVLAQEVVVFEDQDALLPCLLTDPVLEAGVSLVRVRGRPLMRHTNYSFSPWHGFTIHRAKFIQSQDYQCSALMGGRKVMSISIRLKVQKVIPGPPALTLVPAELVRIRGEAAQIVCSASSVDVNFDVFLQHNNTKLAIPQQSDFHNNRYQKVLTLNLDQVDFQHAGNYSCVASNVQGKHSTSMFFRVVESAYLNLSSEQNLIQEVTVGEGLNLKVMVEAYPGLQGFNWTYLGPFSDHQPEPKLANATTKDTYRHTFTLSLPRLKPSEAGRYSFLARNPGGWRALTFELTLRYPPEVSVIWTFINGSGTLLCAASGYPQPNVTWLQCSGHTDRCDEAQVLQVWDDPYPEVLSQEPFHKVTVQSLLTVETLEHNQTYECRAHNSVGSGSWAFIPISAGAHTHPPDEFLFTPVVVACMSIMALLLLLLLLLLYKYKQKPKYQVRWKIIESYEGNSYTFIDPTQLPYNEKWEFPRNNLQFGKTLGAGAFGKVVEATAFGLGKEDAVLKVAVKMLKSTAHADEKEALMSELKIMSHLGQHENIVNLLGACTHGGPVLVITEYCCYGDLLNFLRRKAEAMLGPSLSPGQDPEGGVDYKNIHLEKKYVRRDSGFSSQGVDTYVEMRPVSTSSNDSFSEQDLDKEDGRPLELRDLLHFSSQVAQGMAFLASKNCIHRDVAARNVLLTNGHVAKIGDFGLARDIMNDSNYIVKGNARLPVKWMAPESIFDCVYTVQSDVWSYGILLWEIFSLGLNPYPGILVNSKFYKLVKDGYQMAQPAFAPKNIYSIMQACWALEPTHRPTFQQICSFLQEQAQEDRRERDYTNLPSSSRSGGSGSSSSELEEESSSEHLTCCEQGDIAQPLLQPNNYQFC
Sequence of Tyrosine-protein kinase HCK (Homo sapiens) (P08631 2-526 limits assumed): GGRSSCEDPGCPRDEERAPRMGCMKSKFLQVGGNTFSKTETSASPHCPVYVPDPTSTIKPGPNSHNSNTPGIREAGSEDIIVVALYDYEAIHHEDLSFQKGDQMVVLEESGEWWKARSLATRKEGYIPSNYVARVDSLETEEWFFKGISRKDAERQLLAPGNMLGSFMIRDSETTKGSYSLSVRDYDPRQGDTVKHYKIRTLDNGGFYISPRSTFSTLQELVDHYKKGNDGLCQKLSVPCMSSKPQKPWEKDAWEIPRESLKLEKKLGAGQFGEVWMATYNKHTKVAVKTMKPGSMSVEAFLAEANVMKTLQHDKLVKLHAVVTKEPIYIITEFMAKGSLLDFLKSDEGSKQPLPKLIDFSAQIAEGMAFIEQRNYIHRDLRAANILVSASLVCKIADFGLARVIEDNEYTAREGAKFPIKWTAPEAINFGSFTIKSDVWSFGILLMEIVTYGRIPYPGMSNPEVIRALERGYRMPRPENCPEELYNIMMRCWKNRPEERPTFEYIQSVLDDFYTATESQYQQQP
Sequence of Tyrosine-protein kinase JAK1 (Homo sapiens) (P23458 whole entry, the tested form may be a part): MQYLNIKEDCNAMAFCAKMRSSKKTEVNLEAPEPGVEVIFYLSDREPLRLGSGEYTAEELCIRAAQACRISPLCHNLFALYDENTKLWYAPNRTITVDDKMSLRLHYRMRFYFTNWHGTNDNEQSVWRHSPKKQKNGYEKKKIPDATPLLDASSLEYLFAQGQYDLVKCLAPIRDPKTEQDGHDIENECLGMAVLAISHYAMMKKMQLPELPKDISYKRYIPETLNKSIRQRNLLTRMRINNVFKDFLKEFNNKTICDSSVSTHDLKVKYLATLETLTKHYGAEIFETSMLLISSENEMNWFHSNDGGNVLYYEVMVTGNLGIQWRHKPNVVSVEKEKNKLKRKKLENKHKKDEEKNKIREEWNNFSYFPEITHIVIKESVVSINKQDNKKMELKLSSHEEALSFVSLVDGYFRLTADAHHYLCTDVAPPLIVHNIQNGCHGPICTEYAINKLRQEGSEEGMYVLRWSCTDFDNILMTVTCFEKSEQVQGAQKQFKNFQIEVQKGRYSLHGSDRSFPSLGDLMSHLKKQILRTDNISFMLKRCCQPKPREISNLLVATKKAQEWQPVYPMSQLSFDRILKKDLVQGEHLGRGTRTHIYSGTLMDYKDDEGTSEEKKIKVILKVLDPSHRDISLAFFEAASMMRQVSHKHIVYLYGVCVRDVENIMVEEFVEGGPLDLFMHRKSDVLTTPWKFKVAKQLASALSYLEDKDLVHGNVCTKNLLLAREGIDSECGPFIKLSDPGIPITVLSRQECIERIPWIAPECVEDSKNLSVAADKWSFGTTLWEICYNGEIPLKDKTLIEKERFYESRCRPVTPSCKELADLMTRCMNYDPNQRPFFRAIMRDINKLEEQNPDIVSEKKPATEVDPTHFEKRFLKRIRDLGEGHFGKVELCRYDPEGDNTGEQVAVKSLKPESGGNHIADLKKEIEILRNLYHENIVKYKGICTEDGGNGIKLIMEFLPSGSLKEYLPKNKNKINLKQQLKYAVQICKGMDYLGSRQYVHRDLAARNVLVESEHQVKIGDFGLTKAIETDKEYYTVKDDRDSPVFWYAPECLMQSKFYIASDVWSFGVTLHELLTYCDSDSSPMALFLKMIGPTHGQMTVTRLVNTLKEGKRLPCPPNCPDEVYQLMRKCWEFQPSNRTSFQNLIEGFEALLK
Sequence of Cyclin-dependent kinase 3 (Homo sapiens) (Q00526 whole entry, looked up): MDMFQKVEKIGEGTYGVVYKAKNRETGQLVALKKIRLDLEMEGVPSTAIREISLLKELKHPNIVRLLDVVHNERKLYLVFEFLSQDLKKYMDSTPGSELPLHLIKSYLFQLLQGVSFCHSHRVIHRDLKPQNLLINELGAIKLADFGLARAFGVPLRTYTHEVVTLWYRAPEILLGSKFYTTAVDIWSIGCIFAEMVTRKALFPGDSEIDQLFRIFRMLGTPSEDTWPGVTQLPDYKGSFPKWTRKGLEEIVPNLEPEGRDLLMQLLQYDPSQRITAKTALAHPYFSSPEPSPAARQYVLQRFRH
Sequence of Tyrosine-protein kinase Fgr (Homo sapiens) (P09769 2-529 limits assumed): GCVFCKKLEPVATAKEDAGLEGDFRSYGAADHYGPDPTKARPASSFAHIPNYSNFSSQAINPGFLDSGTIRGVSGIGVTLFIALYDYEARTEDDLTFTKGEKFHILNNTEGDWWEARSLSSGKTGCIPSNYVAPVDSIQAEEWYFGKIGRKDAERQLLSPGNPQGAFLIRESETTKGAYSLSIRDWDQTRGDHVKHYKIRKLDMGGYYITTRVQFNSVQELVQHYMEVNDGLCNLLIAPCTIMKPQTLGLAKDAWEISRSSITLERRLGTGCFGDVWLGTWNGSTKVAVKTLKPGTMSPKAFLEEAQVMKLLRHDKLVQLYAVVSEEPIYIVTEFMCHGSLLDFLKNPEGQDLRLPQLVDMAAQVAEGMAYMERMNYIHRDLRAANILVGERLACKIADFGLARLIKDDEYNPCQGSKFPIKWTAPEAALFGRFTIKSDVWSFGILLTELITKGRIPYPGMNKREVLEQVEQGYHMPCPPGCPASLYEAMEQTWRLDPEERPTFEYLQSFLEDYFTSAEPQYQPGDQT
Sequence of Insulin receptor (Homo sapiens) (P06213 28-758 limits assumed): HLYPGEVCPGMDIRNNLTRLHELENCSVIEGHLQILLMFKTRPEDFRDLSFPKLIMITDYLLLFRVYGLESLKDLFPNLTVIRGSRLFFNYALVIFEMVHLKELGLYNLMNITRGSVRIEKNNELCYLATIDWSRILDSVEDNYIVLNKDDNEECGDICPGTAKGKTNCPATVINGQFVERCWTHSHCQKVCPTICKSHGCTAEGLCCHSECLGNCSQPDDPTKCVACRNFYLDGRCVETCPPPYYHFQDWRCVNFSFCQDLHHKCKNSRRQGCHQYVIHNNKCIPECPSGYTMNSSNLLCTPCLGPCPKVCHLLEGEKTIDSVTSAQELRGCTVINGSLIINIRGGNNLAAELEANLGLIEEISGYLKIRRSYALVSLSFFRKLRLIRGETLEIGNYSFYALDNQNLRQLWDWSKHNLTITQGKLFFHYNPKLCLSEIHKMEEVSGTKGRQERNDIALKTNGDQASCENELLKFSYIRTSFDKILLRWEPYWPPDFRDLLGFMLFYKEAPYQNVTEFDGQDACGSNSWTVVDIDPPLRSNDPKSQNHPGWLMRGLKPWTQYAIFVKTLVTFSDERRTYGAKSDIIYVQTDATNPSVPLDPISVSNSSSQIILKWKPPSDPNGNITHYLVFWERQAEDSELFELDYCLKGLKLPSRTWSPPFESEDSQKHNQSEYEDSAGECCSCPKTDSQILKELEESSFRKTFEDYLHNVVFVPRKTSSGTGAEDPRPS
Sequence of Insulin receptor (Homo sapiens) (P06213 763-1382 limits assumed): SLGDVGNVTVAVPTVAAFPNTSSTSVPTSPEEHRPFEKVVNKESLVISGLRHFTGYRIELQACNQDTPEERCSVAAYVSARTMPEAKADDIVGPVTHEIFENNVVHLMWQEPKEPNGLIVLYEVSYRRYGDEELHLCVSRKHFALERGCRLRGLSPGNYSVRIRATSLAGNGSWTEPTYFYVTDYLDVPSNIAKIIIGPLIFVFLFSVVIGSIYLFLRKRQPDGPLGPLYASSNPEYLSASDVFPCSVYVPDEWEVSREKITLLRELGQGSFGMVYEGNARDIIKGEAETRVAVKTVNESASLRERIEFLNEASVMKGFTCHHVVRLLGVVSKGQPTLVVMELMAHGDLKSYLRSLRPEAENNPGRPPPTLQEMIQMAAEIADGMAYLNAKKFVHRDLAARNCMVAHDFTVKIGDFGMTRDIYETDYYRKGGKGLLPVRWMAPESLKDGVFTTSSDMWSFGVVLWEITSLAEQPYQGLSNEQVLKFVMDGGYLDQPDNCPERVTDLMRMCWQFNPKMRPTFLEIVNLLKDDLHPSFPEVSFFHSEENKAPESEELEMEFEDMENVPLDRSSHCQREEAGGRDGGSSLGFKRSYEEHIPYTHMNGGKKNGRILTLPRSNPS

COc1cc2ncnc(N[C@H](C)c3cccc4ccccc34)c2cc1OC gave an Activity [1] of 52%, an Activity [2] of 95% and an Activity [3] of 100%. It also gave an Activity [4] of 90%, an Activity [5] of 81% and an Activity [6] of 96%. It also gave an Activity [7] of 88%, an Activity [8] of 88% and an Activity [9] of 79%. The Activity [10] was 100%, the Activity [11] was 75% and the Activity [12] was 77%. It also gave an Activity [13] of 83%.
